# Laboratory results: patent US9115073B2, “1,3-diphenylpropane derivatives, preparations and uses thereof” (GENFIT, priority 2011, dated 2015)
# Experiments:
# Assay type in all cases: cell-based
# [1] = target: T1, hPPARgamma (Homo sapiens, UniProt P37231); assay: Gal4-hPPARgamma transactivation assay in COS-7 cells (luciferase); settings: for Gal4-hPPARγ(LBD) TOP (% ref): maximal relative activation vs reference; for EC50: Gal4-hPPARγ(LBD) transactivation; for Emax: COS-7, maximal relative activation vs reference, read-out: Gal4-hPPARγ(LBD) TOP (% ref)
# T1 construct: Gal4-hPPARγ(LBD); Gal4 (fusion partner); expressed in transfected cells; host or cells: COS-7 (monkey kidney)
# T1 sequence (P37231 238-503 limits assumed): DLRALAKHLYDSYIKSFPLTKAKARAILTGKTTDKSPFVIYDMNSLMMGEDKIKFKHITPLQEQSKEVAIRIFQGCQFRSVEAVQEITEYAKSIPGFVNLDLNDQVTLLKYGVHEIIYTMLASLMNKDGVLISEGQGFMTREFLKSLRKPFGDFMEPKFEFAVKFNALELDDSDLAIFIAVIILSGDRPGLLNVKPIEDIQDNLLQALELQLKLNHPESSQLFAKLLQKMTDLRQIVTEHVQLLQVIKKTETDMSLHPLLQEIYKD
# Protocol: (§1) Monkey kidney COS-7 cells were maintained in standard culture conditions (Dulbecco's modified Eagle's minimal medium: DMEM) supplemented with 10% fetal calf serum, 1% sodium pyruvate, 1% essential amino acids and 1% antibiotics at 37° C. in a humidified atmosphere of 5% C02 and 95% air. The medium was changed every 2 days. All tested compounds were dissolved in DMSO. Cells were transfected using 2 μl JetPEI™ (Polyplus transfection)/μg of DNA. Briefly, 40 μg of DNA was transfected in a 225 cm^2 culture flask of adherent COS-7 cells (respecting the 1/50 ratio between the Gal4(RE)_TkpGL3 plasmid and the plasmid coding the nuclear receptor of interest (pGal4-hPPARalpha, pGal4-hPPARgamma, pGal4-hPPARdelta, pGal4-mPPARalpha, pGal4-mPPARgamma and pGal4-mPPARdelta) or of the pGal4phi plasmid (negative control). Cells were enzymatically detached and seeded in 384 well plates at the density of 20,000 cells/well and then incubated for 4 hours at 37° C. The activation was automatically performed, by using the Genesis Freedom 200™ (Tecan), in fresh medium supplemented with 2% of synthetic serum, free of lipids (Ultroser™, Biosepra) supplemented with the tested compounds (compound of interest or reference molecules) or vehicle (DMSO 0.1%). The luciferase activity was measured with the Steady-Glo Luciferase Assay System (Promega, Madison, Wis.). All transactivation experiments were performed at least 2 times. Activation curves were realized using SigmaPlot® (version 7.0 from SPSS Inc.) software and took into account all the experimental points. SimgaPlot® was also used to fit the standard curves and then determine the specific EC50 values, maximum effect versus reference molecules and Hill slope. The Emax effect of each new ligand is represented as the ratio of the maximal induction (plateau) obtained with the new ligand and the induction obtained with the corresponding reference compound. The reference compounds for PPARalpha, PPARgamma and PPARdelta were fenofibrate (100 μM), rosiglitazone (10 μM) and GW501516 (1 μM).
# [2] = target: T2, hPPARdelta (Homo sapiens, UniProt Q03181); assay: Gal4-hPPARdelta transactivation assay in COS-7 cells (luciferase); settings: for Gal4-hPPARδ(LBD) TOP (% ref): maximal relative activation vs reference; for EC50: Gal4-hPPARδ(LBD) transactivation; for Emax: COS-7, maximal relative activation vs reference, read-out: Gal4-hPPARδ(LBD) TOP (% ref)
# T2 construct: Gal4-hPPARδ(LBD); Gal4 (fusion partner); expressed in transfected cells; host or cells: COS-7 (monkey kidney)
# T2 sequence (Q03181 211-439 limits assumed): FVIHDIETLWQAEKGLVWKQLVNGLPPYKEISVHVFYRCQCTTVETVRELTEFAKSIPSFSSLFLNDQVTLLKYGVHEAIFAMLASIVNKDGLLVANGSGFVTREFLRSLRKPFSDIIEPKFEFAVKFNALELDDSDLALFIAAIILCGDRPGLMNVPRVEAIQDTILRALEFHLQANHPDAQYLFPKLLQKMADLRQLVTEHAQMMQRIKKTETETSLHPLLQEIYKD
# Protocol: as §1
# [3] = target: T3, hPPARalpha (Homo sapiens, UniProt Q07869); assay: Gal4-hPPARalpha transactivation assay in COS-7 cells (luciferase); settings: for Gal4-hPPARα(LBD) TOP (% ref): maximal relative activation vs reference; for EC50: Gal4-hPPARα(LBD) transactivation; for Emax: COS-7, maximal relative activation vs reference, read-out: Gal4-hPPARα(LBD) TOP (% ref)
# T3 construct: Gal4-hPPARα(LBD); Gal4 (fusion partner); expressed in transfected cells; host or cells: COS-7 (monkey kidney)
# T3 sequence (Q07869 239-466 limits assumed): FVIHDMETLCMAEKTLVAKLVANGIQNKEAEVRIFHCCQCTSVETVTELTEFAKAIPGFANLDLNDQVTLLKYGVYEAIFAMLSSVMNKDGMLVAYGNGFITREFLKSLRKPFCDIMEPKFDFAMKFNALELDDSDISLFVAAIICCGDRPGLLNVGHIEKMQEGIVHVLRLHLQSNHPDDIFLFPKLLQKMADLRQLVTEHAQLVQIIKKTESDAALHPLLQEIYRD
# Protocol: as §1
Gal4-hPPARγ(LBD) TOP (% ref) [1],Gal4-hPPARδ(LBD) TOP (% ref) [2],Gal4-hPPARα(LBD) TOP (% ref) [3],EC50 [1],EC50 [2],EC50 [3],Emax [1],Emax [3],Compound,other results
87 % ref,67 % ref,42 % ref,–,–,–,–,–,"Cc1cc(C2CC2C(OCc2ccccc2)c2ccc(OC(F)(F)F)cc2)cc(C)c1OC(C)(C)C(=O)O (racemic) [Cpd 11-2, 2-(4-(2-(benzyloxy(4-(trifluoromethoxy)phenyl)methyl)cyclopropyl)-2,6-dimethylphenoxy)-2-methylpropanoic acid]",–
–,–,–,2 nM,12 nM,50 nM,–,–,"COC(c1ccc(C(F)(F)F)cc1C(F)(F)F)C1CC1c1cc(C)c(OC(C)(C)C(=O)O)c(C)c1 (single isomer, unassigned) [Cpd 16-2, 2-(4-(2-((2,4-bis(trifluoromethyl)phenyl)(methoxy)methyl)cyclopropyl)-2,6-dimethylphenoxy)-2-methylpropanoic acid]",–
65 % ref,75 % ref,42 % ref,–,–,–,–,–,"COC(c1ccc(SC)cc1)C1CC1c1cc(C)c(OC(C)(C)C(=O)O)c(C)c1 (racemic) [Cpd 3-2, 2-(4-(2-(methoxy(4-(methylthio)phenyl)methyl)cyclopropyl)-2,6-dimethylphenoxy)-2-methylpropanoic acid]",–
–,–,–,14 nM,44 nM,108 nM,80%,40%,"COC(c1ccc(C(F)(F)F)cc1C(F)(F)F)C1CC1c1cc(C)c(OC(C)(C)C(=O)O)c(C)c1 (single isomer, unassigned) [Cpd 16-1, 2-(4-(2-((2,4-bis(trifluoromethyl)phenyl)(methoxy)methyl)cyclopropyl)-2,6-dimethylphenoxy)-2-methylpropanoic acid]",Emax [2]: 60%
–,–,–,23 nM,122 nM,100 nM,–,–,"Cc1cc(C2CC2C(OCc2ccccc2)c2ccc(OC(F)(F)F)cc2)cc(C)c1OC(C)(C)C(=O)O (single isomer, unassigned) [Cpd 11-2, 2-(4-(2-(benzyloxy(4-(trifluoromethoxy)phenyl)methyl)cyclopropyl)-2,6-dimethylphenoxy)-2-methylpropanoic acid]",–
–,–,–,–,–,–,–,–,"COC(c1ccc(OC(F)(F)F)cc1)C1CC1c1cc(C)c(OC(C)(C)C(=O)O)c(C)c1 (racemic) [Cpd 14-1, 2-(4-(2-(methoxy(4-(trifluoromethoxy)phenyl)methyl)cyclopropyl)-2,6-dimethylphenoxy)-2-methylpropanoic acid]",Gal4-hPPARγ(LBD) TOP (% ref) ([1]; listed as cpd 14-1): 66 % ref; Gal4-hPPARδ(LBD) TOP (% ref) ([2]; listed as cpd 14-1): 81 % ref
72 % ref,60 % ref,47 % ref,–,–,–,–,–,"CCCCOC(c1ccc(OC(F)(F)F)cc1)C1CC1c1cc(C)c(OC(C)(C)C(=O)O)c(C)c1 (racemic) [Cpd 5-2, 2-(4-(2-(butyloxy(4-(trifluoromethoxy)phenyl)methyl)cyclopropyl)-2,6-dimethylphenoxy)-2-methylpropanoic acid]",–
88 % ref,71 % ref,50 % ref,–,–,–,–,–,"COC(c1ccc(C(F)(F)F)cc1C(F)(F)F)C1CC1c1cc(C)c(OC(C)(C)C(=O)O)c(C)c1 (racemic) [Cpd 16-2, 2-(4-(2-((2,4-bis(trifluoromethyl)phenyl)(methoxy)methyl)cyclopropyl)-2,6-dimethylphenoxy)-2-methylpropanoic acid]",–
–,–,–,20 nM,16 nM,64 nM,84%,47%,"COC(c1ccc(C(F)(F)F)cc1)C1CC1c1cc(C)c(OC(C)(C)C(=O)O)c(C)c1 (racemic) [Cpd 4-1, 2-(4-(2-(methoxy(4-(trifluoromethyl)phenyl)methyl)cyclopropyl)-2,6-dimethylphenoxy)-2-methylpropanoic acid]",Emax [2]: 92%
–,–,–,18 nM,169 nM,139 nM,–,–,"COC(c1ccc(SC)cc1)C1CC1c1cc(C)c(OC(C)(C)C(=O)O)c(C)c1 (single isomer, unassigned) [Cpd 3-2, 2-(4-(2-(methoxy(4-(methylthio)phenyl)methyl)cyclopropyl)-2,6-dimethylphenoxy)-2-methylpropanoic acid]",–
–,–,–,16 nM,–,–,90%,44%,"COC(c1ccc(OC(F)(F)F)cc1)C1CC1c1cc(C)c(OC(C)(C)C(=O)O)c(C)c1 (stereo not drawn) [Cpd 14-2-1, 2-(4-(2-(methoxy(4-(trifluoromethoxy)phenyl)methyl)cyclopropyl)-2,6-dimethylphenoxy)-2-methylpropanoic acid]",EC50 ([2]; listed as cpd 14-2-1): 19 nM; Gal4-hPPARδ(LBD) TOP (% ref) ([2]; listed as cpd 14-2-1): 78 % ref; EC50 ([3]; listed as cpd 14-2-1): 50 nM
–,–,–,26 nM,157 nM,59 nM,84%,44%,"CCCCCCOc1ccccc1C(OC)C1CC1c1cc(C)c(OC(C)(C)C(=O)O)c(C)c1 (racemic) [Cpd 18-1, 2-(4-(2-((2-(hexyloxy)phenyl)(methoxy)methyl)cyclopropyl)-2,6-dimethylphenoxy)-2-methylpropanoic acid]",Emax [2]: 78%
79 % ref,66 % ref,38 % ref,34 nM,131 nM,26 nM,–,–,"Cc1cc(C2CC2C(OCCC2CCCCC2)c2ccc(OC(F)(F)F)cc2)cc(C)c1OC(C)(C)C(=O)O (racemic) [Cpd 6-2, 2-(4-(2-(cyclohexylethyloxy(4-(trifluoromethoxy)phenyl)methyl)cyclopropyl)-2,6-dimethylphenoxy)-2-methylpropanoic acid]",–
–,–,–,230 nM,87 nM,143 nM,67%,50%,"COC(c1ccc(OC(F)(F)F)cc1)C1CC1c1cc(F)c(OC(C)(C)C(=O)O)c(F)c1 (racemic) [Cpd 20-1, 2-(2,6-difluoro-4-(2-(methoxy(4-(trifluoromethoxy)phenyl)methyl)cyclopropyl)phenoxy)-2-methylpropanoic acid]",Emax [2]: 84%
–,–,–,3 nM,13 nM,90 nM,–,–,"COC(c1ccc(C(F)(F)F)cc1F)C1CC1c1cc(C)c(OC(C)(C)C(=O)O)c(C)c1 (single isomer, unassigned) [Cpd 12-2, 2-(4-(2-(methoxy(2-fluoro-4-(trifluoromethyl)phenyl)methyl)cyclopropyl)-2,6-dimethylphenoxy)-2-methylpropanoic acid]",–
–,–,–,25 nM,7 nM,32 nM,–,60%,"COC(c1ccc(OC(F)(F)F)cc1)C1CC1c1cc(C)c(OC(C)(C)C(=O)O)c(C)c1 (single isomer, unassigned) [Cpd 14-1, 2-(4-(2-(methoxy(4-(trifluoromethoxy)phenyl)methyl)cyclopropyl)-2,6-dimethylphenoxy)-2-methylpropanoic acid]",–
